Laboratory results published in patent US20020165237A1, “Treatment of the insulin resistance syndrome” (priority 2000, published 2002).

Tests used:
ob/ob mice [1] = assay: Plasma glucose and triglyceride levels in ob/ob mice, compound administered in the drinking water, 5 day study; type: in vivo; conditions: for Plasma Triglyceride Level: day 5, mean ± SEM; for Changes in Plasma Glucose Concentrations: over 5 day period, mean ± SEM
Description: (§1) The selective PDE5 inhibitor compounds to be tested were solubilized in 10% DMSO/0.1% pluronics and dosed via oral gavage using mouse oral feeding needles (20 gauge, Popper & Sons, Inc., New Hyde Park, N.Y.). A volume of 4 ml/kg weight was administered for each dose. Compounds were tested at doses ranging from 1-50 mg/kg. Alternatively, the test selective PDE5 inhibitor compound was administered in the drinking water and found to produce similar reductions in plasma glucose and triglycerides to the reductions observed for the same compound when administered by oral gavage.
(§2) Male ob/ob mice obtained from Jackson Laboratories (Bar Harbor, ME) were used in the studies at 6 to 10 weeks of age. Mice were housed five per cage and allowed free access to D11 mouse chow (Purina, Brentwood, Mo.) and water.
(§3) Mice were allowed to acclimate to the Pfizer animal facilities for 1 week prior to the start of the study. On day one, retro-orbital blood samples were obtained and plasma glucose was determined as described hereinafter. […] On day one, mice were dosed with vehicle or a test selective PDE5 inhibitor compound only in the afternoon. Subsequently, mice were dosed twice a day on day 2-4 in the morning and in the afternoon. On day 5, the mice received an a.m. dose and bled 3 hours later for plasma preparation for glucose and triglyceride analysis as described below. Alternatively, test selective PDE5 inhibitor compound was administered in the drinking water commencing on the afternoon of day 1 and continuing through day 5, when mice were then bled for plasma preparation for glucose and triglyceride analysis as described below. Terminal plasma samples were collected on day 5 following the retro-orbital sinus bleed as described below. Body weight was measured on days 1 and 5 of the study, and food consumption was assessed over the 5 day period.
(§4) On the morning of the last day of the study mice were dosed with test compound or vehicle at approximately 8:00 am. Three hours after dosing, 25 μL of blood was obtained via the retro-orbital sinus and added to 100 μL of 0.025% heparinized-saline in Denville Scientific microtubes. The tubes were spun at the highest setting in a Beckman Microfuge 12 for 2 minutes. Plasma was collected for plasma glucose and triglyceride determination. The mice were then sacrificed by decapitation and ˜1 ml of blood was collected in Becton-Dickinson Microtainer brand plasma separator tubes with lithium heparin. The tubes were spun in a Beckman Microfuge 12 at the maximum setting for five minutes. Plasma was collected in 1.5 ml Eppendorf tubes and snap frozen in liquid nitrogen. Plasma samples were stored at −80° C. until analyzed.
(§5) Plasma glucose and triglycerides were measured using the Alcyon Clinical Chemistry Analyzer (Abbott Laboratories, Abbott Park, Ill.) using kits supplied by Abbott. Plasma cGMP was measured using the Biotrak enzyme-immunoassay system by Amersham (Piscataway, N.J.). Via a similar technique the plasma insulin can be assessed by the Mercodia ELISA Insulin kit by ALPCO (Uppsala, Sweden). All assays were conducted according to instructions provided by the manufacturers.
(§6) Comparisons between drug treatments and appropriate vehicles were done by Student's t-test.

[2] = system: non-diabetic subjects with the insulin resistance syndrome; assay: Clinical Trial Data 1: 28-day clinical trial with sildenafil, serum triglyceride levels; type: in vivo, human; conditions: for Fall in serum triglycerides from baseline / Fall in serum triglyceride levels: 28 days; for Fall in serum triglyceride levels: non-diabetic subjects with IRS, preliminary data
Description: In a 28-day clinical trial with sildenafil, serum triglyceride levels were obtained before and at the end of dosing from non-diabetic subjects. Doses included in the study were 10 mg, 25 mg and […] of sildenafil or placebo, dosed once daily. These subjects had the insulin resistance syndrome, as defined by the risk factors as defined hereinbefore. Data are presented in tables 5 and 6 below to illustrate that subjects had evidence of the insulin resistance syndrome. Coronary artery disease (CAD)/ischaemic heart disease (1HD) is one clinical end-point in subjects having the Insulin Resistance Syndrome. For this reason the presence of CAD/IHD was taken as evidence to support the existence of the Insulin Resistance Syndrome in patients with only one of the defined risk factors.

ob/ob mice [3] = assay: Plasma glucose, cGMP and triglyceride levels in ob/ob mice, oral gavage, 5 day study; type: in vivo; conditions: mean ± SEM; for Changes in Plasma Glucose Concentrations: over 5 day period; for Plasma Triglyceride Level: day 5, 3 hours after dose
Description: as §1, §2, §3, §4, §5, §6

[4] = 10 mg once daily, baseline 255 mg/dl
[5] = 25 mg once daily, baseline 213 mg/dl
[6] = 50 mg once daily, baseline 191 mg/dl

Structure (SMILES): CCCc1nn(C)c2c(=O)[nH]c(-c3cc(S(=O)(=O)N4CCN(C)CC4)ccc3OCC)nc12 [PDE5 C, 5-[2-ethoxy-5-(4-methyl-1-piperazinylsulphonyl)phenyl]-1-methyl-3-n-propyl-1,6-dihydro-7H-pyrazolo[4,3-d]pyrimidin-7-one]
- Plasma Triglyceride Level (ob/ob mice [1]; 9 mg/kg in the drinking water): 163 ± 14 mg/dL
- Changes in Plasma Glucose Concentrations (ob/ob mice [1]; 9 mg/kg in the drinking water): -27 ± 34 mg/dL
- Plasma Triglyceride Level (ob/ob mice [1]; 22 mg/kg in the drinking water): 212 ± 20 mg/dL
- Changes in Plasma Glucose Concentrations (ob/ob mice [1]; 22 mg/kg in the drinking water): -15 ± 27 mg/dL
- Plasma Triglyceride Level (ob/ob mice [1]; 45 mg/kg in the drinking water): 151 ± 10 mg/dL
- Changes in Plasma Glucose Concentrations (ob/ob mice [1]; 45 mg/kg in the drinking water): −36 ± 22^ mg/dl
- Fall in serum triglycerides from baseline [2, 4]: about 40%
- Fall in serum triglyceride levels [2, 4]: 100.3 mg/dL
- Fall in serum triglycerides from baseline [2, 5]: ~31%
- Fall in serum triglyceride levels [2, 5]: 67.3 mg/dL
- Fall in serum triglycerides from baseline [2, 6]: ~12%
- Fall in serum triglyceride levels [2, 6]: 23.9 mg/dL
- Reduction of serum triglycerides compared to placebo ([2]; sildenafil group vs placebo, p=0.0457): statistically significantly different compared to placebo
- HDL compared to placebo ([2]; sildenafil group vs placebo, p=0.0539): trend

Structure (SMILES): CCCc1nn(C)c2c(=O)[nH]c(-c3cc(C(=O)CN4CCOCC4)ccc3OCC)nc12 [PDE5 B, 5-(2-ethoxy-5-morpholinoacetylphenyl)-1-methyl-3-n-propyl-1,6-dihydro-7H-pyrazolo[4,3-d]pyrimidin-7-one]
- Changes in Plasma Glucose Concentrations (ob/ob mice [3]; 25 mg/kg oral gavage twice a day): -97 ± 32 mg/dL
- Plasma Triglyceride Level (ob/ob mice [3]; 25 mg/kg oral gavage): 143 ± 7^ mg/dl

Structure (SMILES): CCCOc1ccc(S(=O)(=O)N2CCN(CC)CC2)cc1-c1nc2c(CC)n(Cc3ccccn3)nc2c(=O)[nH]1 [PDE5 A, 3-ethyl-5-[5-(4-ethylpiperazin-1-ylsulphonyl)-2-n-propoxyphenyl]-2-(pyridin-2-yl)methyl-2,6-dihydro-7H-pyrazolo[4,3-d]pyrimidin-7-one]
- Changes in Plasma Glucose Concentrations (ob/ob mice [3]; 10 mg/kg oral gavage twice a day): -115 ± 34 mg/dL
- Plasma Triglyceride Level (ob/ob mice [3]; 10 mg/kg oral gavage): 163 ± 10 mg/dL
- Changes in Plasma Glucose Concentrations (ob/ob mice [3]; 50 mg/kg oral gavage twice a day): -105 ± 25 mg/dL
